Data published in patent US20250195484A1, “CEREBLON LIGANDS AND USES THEREOF” (priority 2022, published 2025).

Columns and labels:
[1] = target: T1, BRD9 (Homo sapiens, UniProt Q9H8M2); assay: BRD9 HiBiT assay for protein degradation (HEK293 CRISPR knock-in); type: cell-based; conditions: for Dmax: HEK293, read-out: BRD9 HEK293 HiBit Dmax; for DC50: HEK293 CRISPR knock-in cells, 6 hrs
T1 construct: endogenous in cells; host or cells: HEK293 (CRISPR HiBiT knock-in)
Description: HiBiT Assay for protein degradation:
The HiBit assay was performed using engineered HEK293 CRISPR knock-in cell utilizing the Nano-Glo HiBiT Lytic Detection System from Promega, Cat #N3040. Compounds were transferred, 25 nL DMSO or test compounds (final DMSO @ 0.1%) to intermediate plates (Corning3570) using ECHO550. Cells were seeded onto compounds at 2000 cells/25 μL/well and incubated for 6 hrs in tissue culture incubator at 37° C. and 5% CO2. The LgBiT Protein was diluted at 1:100 and the Nano-Glo® HiBiT Lytic Substrate 1:50 into an appropriate volume of room temperature using the Nano-Glo® HiBiT Lytic Buffer. At end of compound incubation time 15 ul of the detection reagent was added to each well (without LgBiT for negative control wells) using the Thermo Scientific multidrop combi. The plate was shaken for 10 mins at RT using Combi. After brief centrifugation (2000 rpm 1 mins), plate was read on Envision (Ultrasensitive luminescence model).

[2] = target: GST-tagged wild-type human CRBN protein (Homo sapiens, UniProt Q96SW2); assay: biochemical
Chain of GST-tagged wild-type human CRBN protein (Q96SW2 whole entry): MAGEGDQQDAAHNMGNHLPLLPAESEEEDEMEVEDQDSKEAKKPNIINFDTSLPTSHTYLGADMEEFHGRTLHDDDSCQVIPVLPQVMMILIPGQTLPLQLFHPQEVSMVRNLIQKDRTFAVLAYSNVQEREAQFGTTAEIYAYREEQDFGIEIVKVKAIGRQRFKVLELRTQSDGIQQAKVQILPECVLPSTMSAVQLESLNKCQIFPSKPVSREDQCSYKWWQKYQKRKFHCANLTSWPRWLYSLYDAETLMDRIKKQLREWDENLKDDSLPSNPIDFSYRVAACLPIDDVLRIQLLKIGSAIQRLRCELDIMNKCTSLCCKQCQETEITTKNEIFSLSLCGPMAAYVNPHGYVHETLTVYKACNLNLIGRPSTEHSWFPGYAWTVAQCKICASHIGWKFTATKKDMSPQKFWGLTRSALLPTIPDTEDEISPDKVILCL
Description: The binding to cereblon (CRBN) was determined using the Cereblon Binding Kit (Cisbio, #64BDCRBNPEG) following the manufacturer's instruction. Briefly, serially diluted compounds were incubated with GST-tagged wild-type human CRBN protein, XL665-labelled Thalidomide and Europium Cryptate labelled GST antibody at room temperature for about 3 hours.

T1 sequence (Q9H8M2 whole entry): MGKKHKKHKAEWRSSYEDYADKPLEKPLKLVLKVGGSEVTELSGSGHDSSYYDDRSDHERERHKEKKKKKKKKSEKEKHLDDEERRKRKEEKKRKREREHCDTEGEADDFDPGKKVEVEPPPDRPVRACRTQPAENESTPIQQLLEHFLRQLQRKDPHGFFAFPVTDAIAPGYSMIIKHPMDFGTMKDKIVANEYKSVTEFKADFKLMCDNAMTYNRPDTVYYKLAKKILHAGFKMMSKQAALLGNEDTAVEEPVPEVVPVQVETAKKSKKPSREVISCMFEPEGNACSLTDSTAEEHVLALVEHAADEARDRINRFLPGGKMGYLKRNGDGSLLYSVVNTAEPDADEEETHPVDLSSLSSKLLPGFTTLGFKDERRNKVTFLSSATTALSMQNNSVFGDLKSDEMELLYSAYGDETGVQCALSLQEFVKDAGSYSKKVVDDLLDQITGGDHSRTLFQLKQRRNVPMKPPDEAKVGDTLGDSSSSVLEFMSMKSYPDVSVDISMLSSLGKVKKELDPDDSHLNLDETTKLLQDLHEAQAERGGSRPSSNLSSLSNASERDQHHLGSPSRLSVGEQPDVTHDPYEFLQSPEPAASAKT

SMILES | Dmax [1] [%] | DC50 [1] [nM] | IC50 [2] [nM]
COc1cc(-c2cn(C)c(=O)c3cnc(N4CCC4)cc23)cc(OC)c1C(=O)N1CCC2(CCC(CN3CCC4(CC3)COc3c4ccc4c3CN(C3CCC(=O)NC3=O)C4=O)CC2)CC1 (centres unmarked) [BRD-1, 3-(1′-((3-(4-(6-(azetidin-1-yl)-2-methyl-1-oxo-1,2-dihydro-2,7-naphthyridin-4-yl)-2,6-dimethoxybenzoyl)-3-azaspiro[5.5]undecan-9-yl)methyl)-6-oxo-6,8-dihydro-2H,7H-spiro[furo[2,3-e]isoindole-3,4′-piperidin]-7-yl)piperidine-2,6-dione] | > 90 | < 10 | 
COc1cc(-c2cn(C)c(=O)c(C)c2C)cc(OC)c1C(=O)N1CCC2(CCC(CN3CCC4(CC3)COc3c4ccc4c3C(=O)N(C3CCC(=O)NC3=O)C4=O)CC2)CC1 (centres unmarked) [BRD-2, 1′-((3-(2,6-dimethoxy-4-(1,4,5-trimethyl-6-oxo-1,6-dihydropyridin-3-yl)benzoyl)-3-azaspiro[5.5]undecan-9-yl)methyl)-7-(2,6-dioxopiperidin-3-yl)-7-hydro-2H,6H-spiro[furo[2,3-e]isoindole-3,4′-piperidine]-6,8-dione] | > 90 | 10 to 100 | 
O=C1CCC(N2Cc3c(ccc4c3OCC43CCNCC3)C2=O)C(=O)N1 (centres unmarked) [Compound B1, 3-(6-oxo-6,8-dihydro-2H,7H-spiro[furo[2,3-e]isoindole-3,4′-piperidin]-7-yl)piperidine-2,6-dione] |  |  | 1000
